According to patent US10555919B2, “Melatonin in autoimmune disease” (The Brigham and Women's Hopsital, Inc., priority 2014, dated 2020):

Key:
[1] = tested on: ROR-α; test: Chromatin immunoprecipitation with anti-ROR-α at the il10 promoter; type: cell-based, mouse; settings: T-cell activation under Tr1 polarizing conditions in the presence of melatonin
Experimental: DNA-protein complexes in cells were crosslinked with 4% paraformaldehyde and lysed with 0.35 ml lysis buffer (1% SDS, 10 mM EDTA and 50 mM Tris-HCl, pH 8.1) containing 1×protease inhibitor ‘cocktail’ (Roche Molecular Biochemicals). Chromatin was sheared by sonication and supernatants collected after centrifugation were diluted in buffer (1% Triton X-100, 2 mM EDTA, 150 mM NaCl and 20 mM Tris-HCl, pH 8.1). 5 μg antibody was prebound for a minimum of 6 hs to protein A and protein G Dynal magnetic beads (Invitrogen) and samples were washed three times with ice-cold PBS containing 5% BSA, and then were added to the diluted chromatin, followed by immunoprecipitation overnight. The magnetic bead-chromatin complexes were then washed three times in radioimmunoprecipitation buffer (50 mM HEPES, pH 7.6, 1 mM EDTA, 0.7% Na deoxycholate, 1% NP-40 and 0.5 M LiCl), followed by two washes with Tris-EDTA buffer. Immunoprecipitated chromatin was then extracted with a solution of 1% SDS and 0.1 MNaHCO3 and was heated at 65° C. for at least 6 h for reversal of the paraformaldehyde cross-linking. DNA fragments were purified with a QIAquick DNA purification Kit (Qiagen) and were analyzed by SYBR Green real-time PCR (Takara Bio).

[2] = tested on: CD4+ T cells; test: Th17 differentiation in vivo in RAG-1 deficient mice reconstituted with CD4+ T cells and immunized with MOG35-55 in CFA; settings: melatonin 5 mg/kg
Description: Sorted splenic CD4+ T cells from C57BL/6, MTNR1A-, REV-ERBα and NFIL3-deficient mice were transferred i.p. (10×10^6 cells per mouse) into RAG-1 deficient mice. Ten days after transfer, mice were checked for reconstitution of CD4+ T cells and immunized with MOG35-55 in CFA. Twenty days after immunization, T cells were isolated and stained for cytokines.

[3] = tested on: human CD4+ T cells activated under Th17 polarizing conditions; test: In vitro human Th17 differentiation; type: cell-based; settings: 500 ng/ml
Experimental: (§1) In vitro human T cell differentiation. For Th17 differentiation, naive CD45RA+ CD4+ T cells were isolated from PBMCs with magnetic beads (Naive Human CD4+ T Cell Isolation Kit II, Miltenyi Biotec) and seeded at a density of 5×10^5 cells/ml in 24-well plates coated with anti-CD3 and (2 μg/ml) and soluble anti-CD28 and cultured in the presence of the following cytokines IL-1β (25 ng/ml), IL-6 (50 ng/ml), and TGF-β1 (2 ng/ml) and neutralizing antibodies to IFN-g ([…]) and IL-4 (10 microgram/ml). Alternatively, Th17 cells were differentiated by using IL-1β (25 ng/ml), IL-6 (50 ng/ml), and IL-23 (50 ng/ml) and neutralizing antibodies to IFN-g ([…]) and IL-4 (10 microgram/ml). For Th1 differentiation naïve CD4+T cells are cultured in the presence of IL-12 (20 ng/ml) and anti-IL-4 (10 μg/ml).
Secreted cytokines were measured in tissue culture supernatants after 72-96 hs by enzyme-linked immunosorbent assay as previously described (Farez et al., 2009).

[4] = tested on: nr1d1 reporter-transfected HEK293 cells; test: nr1d1 promoter luciferase reporter assay; type: cell-based; settings: nr1d1 promoter controls luciferase expression
Description: The IL-10 promoter reporter and C-Maf and AhR vectors were previously described (Apetoh et al., 2010), vector expressing ROR-α were purchased from PlasmID at Harvard Medical School. Vectors coding for C/EBPα (44627) and Bmal reporter (46824) were purchased from Addgene. The retrovirus used for nfil3 overexpression in T cells was graciously provided by Laura Hooper (UT Southwestern, TX, USA). The retrovirus used for nr1d1 overexpression in T cells was graciously provided by Bart Staels (Institut Pasteur, Lille, France, […]). The nr1d1 promoter reporter was graciously provide by Vincent Laudent (Ecole Normale Supérieure, Lyon, France).
HEK293 cells were grown in DMEM supplemented with 10% FBS and were transfected with FuGENE HD transfection reagent and 2 μg of each plasmids according the manufacturer's instructions (Roche). Firefly and renilla luciferase activity was analyzed 48 h after transfection and 24 h after treatment with a Dual Luciferase Assay kit (Promega).

[5] = tested on: 2D2+ transgenic T cells; test: In vitro activation of naive 2D2+ transgenic T cells / CD4+ T cells (MOG35-55 and DCs or anti-CD3 and anti-CD28); type: cell-based, mice
[6] = tested on: CD4+ T cells; test: Co-incubation of sorted CD4+ T cells with treatment-switched dendritic cells; type: in vivo; settings: CD4+ T cells from melatonin-treated mice co-incubated with splenic DCs from control mice
Experimental: To investigate if melatonin acts directly on T cells or whether it controls the T-cell response indirectly through its effects on antigen presenting cells, we co-incubated sorted CD4^+ T cells from melatonin-treated or control mice with treatment-switched dendritic cells (DCs).

[7] = tested on: Splenocytes; test: Recall response to MOG35-55 of splenocytes from melatonin-treated mice; type: in vivo
Experimental: Secreted cytokines were measured in tissue culture supernatants after 72-96 hs by enzyme-linked immunosorbent assay as previously described (Farez et al., 2009). […] The cells were pulsed with [3H]thymidine (1 μCi/well) for the final 24 h. The frequency of T cells producing IL-17 (eBioscience), IFN-γ (BioLegend) or IL-10 (BD Pharmingen) and Foxp3+ T cells (eBioscience) was assessed by flow cytometry. For CFSE-based proliferation assay, CD4+ T cells were labeled with 1 μM CFSE (carboxyfluorescein diacetate succinimidyl ester; Molecular Probes). Data were acquired on an […] (BD Biosciences) or MacsQuants (Miltenyi) and analyzed with FlowJo software (TreeStar). To further characterize the effects of melatonin on the encephalitogenic T-cell response, we analyzed the recall response to MOG35-55. […] Thus, melatonin arrests the encephalitogenic Th17 cell response.

[8] = tested on: human Th1 cells; test: In vitro human Th1 differentiation; type: cell-based; settings: 500 ng/ml; IL-12
Experimental: as §1

SMILES: COc1ccc2[nH]cc(CCNC(C)=O)c2c1 [Melatonin, N-Acetyl-5-methoxytryptamine]
- binding of ROR-α to the il10 promoter [1]: increased
- Th17 cell differentiation in vivo ([2]; mice reconstituted with MTNR1A-, REV-ERBα or NFIL3-deficient T cells): increased
- Th17 cell differentiation in vivo ([2]; mice reconstituted with wild type CD4+ T cells): suppression
- production of IL-17, RORC and IL17A expression [3]: reduced
- IL10 expression ([3]; Th17 polarizing conditions): increased
- luciferase activity [4]: decreased
- ability of melatonin-pretreated DCs to activate 2D2+ T cells ([5]; in the presence of MOG35-55): did not affect
- apoptosis in CD4+ T cells (annexin V and propidium iodide staining, Bcl-xl levels) ([5]; stimulated with antibodies against CD3 and CD28, 3 days): did not increase
- in vitro activation of naive 2D2+ transgenic T cells ([5]; with MOG35-55 and DCs or with antibodies to CD3 and CD28 in the absence of DCs): suppressed
- IL-10 production [6]: increased
- proliferation and IL-17 secretion [6]: decreased
- proliferative response to MOG35-55 [7]: diminished
- IFN-γ production ([7]; recall to MOG35-55): no significant effects
- IL-10 production ([7]; recall to MOG35-55): increased
- IL-17 production ([7]; recall to MOG35-55): reduced
- differentiation of human Th1 cells [8]: no effect
